Each cell line was assayed with Cn1c(=O)n(-c2ccc(C(C)(C)C#N)cc2)c2c3cc(-c4cnc5ccccc5c4)ccc3ncc21 [Dactolisib] + Nc1ncn([C@H]2C[C@H](O)[C@@H](CO)O2)c(=O)n1 [Decitabine] (partner 2 µM) (assay: relative viability (nuclei count vs DMSO), 5 days (fraction); higher = more cells survive). Details: first compound 0.2 µM.
Summary of the method: (§1)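 Relative viability equals treated-well nuclei counts divided by vehicle-well nuclei counts. Counts came from 4× images of lung cancer cell lines grown in 1536-well plates for 5 days after pin-tool dosing on the day after seeding. Dosing used one drug alone or a fixed anchor-drug dose plus five library-drug doses (not always all listed) in √10 steps, and values are medians of duplicate plates.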

Row | Cell Line | relative viability
1 | NCI-H1793 | 0.172
2 | PC-14 | 0.138
3 | EKVX | 0.22

The cell lines below were run with C1CCC(CC1)N(CCNCCC2=C3C(=C(C=C2)O)NC(=O)CO3)C(=O)CCNCCC4=CC(=C(C=C4)Cl)Cl [AZ505] + O=C(c1cc(Cc2n[nH]c(=O)c3ccccc23)ccc1F)N1CCN(C(=O)C2CC2)CC1 [Olaparib] (partner 8 µM) in the same assay as above. Details: first compound 0.08 µM.
Summary of the method: as §1

Row | Cell Line | relative viability
4 | NCI-H2405 | 0.742
5 | HCC-44 | 0.928
6 | LU99A | 0.279
7 | BEN | 0.998
8 | HARA | 0.451
9 | NCI-H322M | 0.576
10 | LCLC-97TM1 | 0.326
11 | A-427 | 0.765
12 | NCI-H441 | 0.527
13 | NCI-H1734 | 0.603
14 | NCI-H460 | 0.365
15 | NCI-H2347 | 0.554
16 | NCI-H1395 | 0.427
17 | 201T | 0.851
18 | NCI-H1915 | 0.259
19 | HCC-827 | 0.629
20 | LXF-289 | 0.988
21 | NCI-H23 | 0.256
22 | NCI-H647 | 0.521
23 | NCI-H1651 | 0.182
24 | EPLC-272H | 0.638
25 | NCI-H1792 | 0.432
26 | NCI-H1355 | 0.719
27 | NCI-H3122 | 0.617
28 | NCI-H1437 | 0.623
29 | NCI-H1755 | 0.82
30 | HCC-15 | 0.639
31 | NCI-H1793 | 0.696
32 | PC-14 | 0.302

Same assay, conditions: first compound 0.253 µM

Row | Cell Line | relative viability
33 | HOP-62 | 0.374
34 | HCC-44 | 1.01
35 | LU99A | 0.298
36 | BEN | 1.04
37 | LCLC-97TM1 | 0.471
38 | A-427 | 0.704
39 | NCI-H441 | 0.503
40 | NCI-H1734 | 0.673
41 | NCI-H460 | 0.477
42 | NCI-H2347 | 0.505
43 | 201T | 0.857
44 | NCI-H1915 | 0.272
45 | HCC-827 | 0.662
46 | LXF-289 | 1.11
47 | NCI-H23 | 0.362
48 | NCI-H647 | 0.739
49 | NCI-H1651 | 0.19
50 | EPLC-272H | 0.664
51 | NCI-H1792 | 0.447
52 | NCI-H1355 | 0.796
53 | NCI-H3122 | 0.689
54 | NCI-H1437 | 0.623
55 | NCI-H1755 | 0.849
56 | HCC-15 | 0.723
57 | NCI-H1793 | 0.885
58 | PC-14 | 0.255
59 | EKVX | 0.895

Same assay, conditions: first compound 0.8 µM

Row | Cell Line | relative viability
60 | NCI-H2405 | 0.758
61 | HOP-62 | 0.386
62 | HCC-44 | 1.02
63 | LU99A | 0.289
64 | BEN | 1.04
65 | HARA | 0.734
66 | HCC-78 | 0.878
67 | NCI-H322M | 0.707
68 | LCLC-97TM1 | 0.369
69 | A-427 | 0.724
70 | NCI-H441 | 0.586
71 | NCI-H1734 | 0.613
72 | NCI-H460 | 0.388
73 | NCI-H2347 | 0.489
74 | NCI-H1395 | 0.456
75 | 201T | 0.82

Row | Cell Line | relative viability
76 | NCI-H1915 | 0.247
77 | HCC-827 | 0.628
78 | LXF-289 | 1.01
79 | NCI-H23 | 0.305
80 | NCI-H647 | 0.547
81 | NCI-H1651 | 0.179
82 | EPLC-272H | 0.654
83 | NCI-H1792 | 0.404
84 | NCI-H1355 | 0.729
85 | NCI-H3122 | 0.618
86 | NCI-H1437 | 0.632
87 | NCI-H1755 | 0.92
88 | HCC-15 | 0.75
89 | NCI-H1793 | 0.769
90 | PC-14 | 0.248
91 | EKVX | 0.764

Same assay, conditions: first compound 2.53 µM

Row | Cell Line | relative viability
92 | NCI-H2405 | 0.788
93 | HOP-62 | 0.387
94 | HCC-44 | 1
95 | BEN | 1.04
96 | HARA | 0.631
97 | HCC-78 | 0.829
98 | NCI-H322M | 0.768
99 | A-427 | 0.721
100 | NCI-H441 | 0.57
101 | NCI-H1734 | 0.63
102 | NCI-H460 | 0.46
103 | NCI-H2347 | 0.489
104 | NCI-H1395 | 0.489
105 | 201T | 0.862
106 | NCI-H1915 | 0.272
107 | HCC-827 | 0.646
108 | LXF-289 | 1.05
109 | NCI-H23 | 0.364
110 | NCI-H647 | 0.533
111 | NCI-H1651 | 0.185
112 | EPLC-272H | 0.782
113 | NCI-H1792 | 0.517
114 | NCI-H1355 | 0.734
115 | NCI-H3122 | 0.629
116 | NCI-H1437 | 0.595
117 | NCI-H1755 | 0.885
118 | HCC-15 | 0.73
119 | NCI-H1793 | 0.772
120 | PC-14 | 0.324
121 | EKVX | 0.874

Same assay, conditions: first compound 8 µM

Row | Cell Line | relative viability
122 | NCI-H2405 | 0.828
123 | HOP-62 | 0.45
124 | HCC-44 | 1.05
125 | LU99A | 0.265
126 | BEN | 1.21
127 | HARA | 0.761
128 | HCC-78 | 1.03
129 | NCI-H322M | 0.844
130 | LCLC-97TM1 | 0.595
131 | A-427 | 0.732
132 | NCI-H441 | 0.621
133 | NCI-H1734 | 0.641
134 | NCI-H460 | 0.477
135 | NCI-H2347 | 0.52
136 | NCI-H1395 | 0.392
137 | 201T | 0.846

Row | Cell Line | relative viability
138 | NCI-H1915 | 0.257
139 | HCC-827 | 0.711
140 | LXF-289 | 1.01
141 | NCI-H23 | 0.337
142 | NCI-H647 | 0.706
143 | NCI-H1651 | 0.186
144 | EPLC-272H | 0.628
145 | NCI-H1792 | 0.321
146 | NCI-H1355 | 0.711
147 | NCI-H3122 | 0.622
148 | NCI-H1437 | 0.637
149 | NCI-H1755 | 0.868
150 | HCC-15 | 0.736
151 | NCI-H1793 | 0.972
152 | PC-14 | 0.241
153 | EKVX | 0.916

Each cell line was assayed with Cn1c(=O)n(-c2ccc(C(C)(C)C#N)cc2)c2c3cc(-c4cnc5ccccc5c4)ccc3ncc21 [Dactolisib] + NC(=O)Nc1cc(-c2cccc(F)c2)sc1C(=O)N[C@H]1CCCNC1 [AZD7762] (partner 0.2 µM) in the same assay as above. Details: first compound 0.002 µM.
Summary of the method: as §1

Row | Cell Line | relative viability
154 | NCI-H2405 | 0.773
155 | HOP-62 | 0.513
156 | HCC-44 | 1.03
157 | LU99A | 0.305
158 | BEN | 0.781

— the supplement of paper PMC10307832
